# Measured values: US20040143021A1, “Compositions and methods for improving recovery after general anesthesia” (priority 2003, published 2004)
# What was measured:
# [1] = system: patients scheduled for same day surgery under general anesthesia; test: Randomized, double blind, parallel group clinical study of modafinil vs placebo on recovery after general anesthesia (symptom evaluation by verbal analog scale); format: in vivo; settings: for Appetite, verbal analog score, mean (SD) / Ease of sleep, verbal analog score, mean (SD) / Energy, verbal analog score, mean (SD) / Exhaustion, verbal analog score, mean (SD) / Fatigue, verbal analog score, mean (SD) / Nausea, verbal analog score, mean (SD) / Reading ability, verbal analog score, mean (SD) / Restless, verbal analog score, mean (SD) / Tense, verbal analog score, mean (SD) / Worn out, verbal analog score, mean (SD): VAS 0 to 10; for Operative distress, point value: total of 60 possible points
# Source text: Informed consents were obtained from patients scheduled to undergo outpatient surgical procedures under general anesthesia to participate in this prospective study approved by an institutional review board. In this study, the clinical activity of modafinil to improve recovery post-anesthesia was examined in a randomized, double blind, parallel group study. Thirty-four (34) patients scheduled for same day surgery under general anesthesia participated in this prospective study. Patients were American Society of Anesthesiology physical status I-II, with a Body-Mass-Index <40 without any known significant renal, hepatic, cardiovascular, neurological, gastrointestinal, endocrine, hematologic, or pulmonary diseases as judged by the investigator. A history of epilepsy, alcoholism, or chronic use of opioids also excluded the patients from participation in this study. Patients were asked to rate various symptoms they had experienced over the previous 24-hour period using a verbal analog scale (VAS) rating of 0 to 10, as well as discrete scores when indicated. The symptom evaluation included headache, dizziness, level of energy, appetite, nausea, pain, vomiting, degree of being tense, clear-headedness, restlessness, fatigue, exhaustion, quality of sleep during the previous night, need for the help from a caregiver, the ability to read, comprehend, and communicate.
# Anesthetic management of the patients was at the discretion of the attending anesthesiologist. Patients were monitored post-operatively, and cared for according to institutional standards. Once the patient was able to tolerate oral intake of liquids, the study drug (modafinil, 200 mg) or placebo was administered, randomly, with a sip of water. Patients were discharged according to institutional standards. Patients were contacted 24 (+1) hours after dosing for symptom evaluation and the same questions were asked. Patients were also asked whether the study drug they received had any beneficial effect. If the patient felt they received a benefit from the study drug they were asked to describe the benefit in their own words.
# The study group included 24 female and 10 male patients (n=17 per group). The demographics of the groups are shown below in Table 1. There were no significant differences in age, height, weight, or gender distribution between the two groups.
# Almost all patients had received the same type of anesthetic management including propofol, a narcotic, a volatile agent, a muscle relaxant, nitrous oxide, and oxygen. Patients had undergone mostly orthopedic or gynecological surgical procedures. Surgical procedures or the exact doses of anesthetics were not compared between the groups.
# There were no significant differences in preoperative symptoms reported between the two groups (modafinil versus placebo; Table 2). As expected, patients were tenser, more restless, and less relaxed pre-operatively (in both groups). […] Operative distress was defined as a lack of energy, presence of feeling worn out, fatigue, exhaustion, mental clouding, and problem reading (comprehending) (total of 60 possible points to define the most severe Operative distress). In the modafinil group, the point value for operative distress was 10.5±6.0, preoperatively, increasing to 11.3±9.1, postoperatively. The corresponding values for operative distress in the placebo group were 13.4±11.9, pre-operatively, and 21.0±13.8, post-operatively.
# [2] = system: patients with excessive daytime sleepiness associated with narcolepsy; settings: clinical trials, 200 mg/d and 400 mg/d; cited from earlier work
# sleep-deprived pilots = settings: in vivo; cited from earlier work
# [3] = post-operative minus pre-operative, modafinil 200 mg
# [4] = post-operative, 24 h after modafinil 200 mg oral, n = 17
# [5] = pre-operative (before dosing), n = 17
# [6] = share of patients, modafinil 200 mg, n = 17
smiles,measurement,setting,value
NC(=O)C[S+]([O-])C(c1ccccc1)c1ccccc1 (stereo not drawn) [Modafinil],"Patients expressing themes of ""alertness"" and ""energy"" as benefit of study drug","[1]; content analysis of comments, modafinil group, p<0.05 vs 18% placebo",71%
same,Exhaustion postoperatively compared with placebo,[1]; modafinil 200 mg vs placebo,significantly less exhausted
same,Fatigue postoperatively compared with placebo,[1]; modafinil 200 mg vs placebo,significantly less fatigue
same,Feeling worn out postoperatively compared with placebo,[1]; modafinil 200 mg vs placebo,significantly less worn out
same,Feelings of alertness and energy in patients recovering from general anesthesia,[1]; modafinil 200 mg vs placebo,"significantly improved feelings of alertness, and energy"
same,Post-operative distress compared with placebo,[1]; modafinil 200 mg vs placebo,significantly less post-operative distress
same,Patients complaining of not being able to fall asleep at night,"[1]; modafinil group (n = 17), four in placebo group",one
same,Patients complaining of moderate-to-severe fatigue,[1]; modafinil treatment group vs 65% placebo,12%
same,"Appetite, verbal analog score, difference",[1]; [3],−1.8
same,"Ease of sleep, verbal analog score, difference",[1]; [3],−0.3
same,"Energy, verbal analog score, difference",[1]; [3],−1.3
same,"Exhaustion, verbal analog score, difference",[1]; [3],0.2
same,"Fatigue, verbal analog score, difference",[1]; [3],−0.2
same,"Nausea, verbal analog score, difference",[1]; [3],1.3
same,"Reading ability, verbal analog score, difference",[1]; [3],0.2
same,"Restless, verbal analog score, difference",[1]; [3],−2.0
same,"Tense, verbal analog score, difference",[1]; [3],−3.2
same,"Worn out, verbal analog score, difference",[1]; [3],−0.6
same,"Appetite, verbal analog score, mean (SD)",[1]; [4],6.1 (3.8)
same,"Ease of sleep, verbal analog score, mean (SD)",[1]; [4],6.2 (3.6)
same,"Energy, verbal analog score, mean (SD)",[1]; [4],6.2 (3.5)
same,"Exhaustion, verbal analog score, mean (SD)",[1]; [4],2.4 (3.1)
same,"Fatigue, verbal analog score, mean (SD)",[1]; [4],1.4 (1.8)
same,"Nausea, verbal analog score, mean (SD)",[1]; [4],1.9 (3.5)
same,"Reading ability, verbal analog score, mean (SD)",[1]; [4],9.2 (1.6)
same,"Restless, verbal analog score, mean (SD)",[1]; [4],2.5 (3.0)
same,"Tense, verbal analog score, mean (SD)",[1]; [4],2.2 (3.2)
same,"Worn out, verbal analog score, mean (SD)",[1]; [4],2.9 (2.4)
same,"Mental limitation to resume activity, verbal analog score, mean (SD)",[1]; [4],0.6 (1.6)
same,"Operative distress, point value","[1]; postoperatively, modafinil 200 mg",11.3±9.1
same,"Appetite, verbal analog score, mean (SD)",[1]; [5],7.9 (2.9)
same,"Ease of sleep, verbal analog score, mean (SD)",[1]; [5],6.5 (3.3)
same,"Energy, verbal analog score, mean (SD)",[1]; [5],7.5 (2.8)
same,"Exhaustion, verbal analog score, mean (SD)",[1]; [5],2.2 (3.3)
same,"Fatigue, verbal analog score, mean (SD)",[1]; [5],1.6 (2.7)
same,"Nausea, verbal analog score, mean (SD)",[1]; [5],0.6 (2.4)
same,"Reading ability, verbal analog score, mean (SD)",[1]; [5],9.0 (2.1)
same,"Restless, verbal analog score, mean (SD)",[1]; [5],4.5 (3.7)
same,"Tense, verbal analog score, mean (SD)",[1]; [5],5.4 (3.6)
same,"Worn out, verbal analog score, mean (SD)",[1]; [5],3.5 (3.4)
same,"Operative distress, point value","[1]; preoperatively, modafinil group",10.5±6.0
same,"Fatigue, % with rating > 3",[1]; [6],18%
same,"Fatigue, % with rating ≧ 5",[1]; [6],12%
same,"Worn out, % with rating > 3",[1]; [6],41%
same,"Worn out, % with rating ≧ 5",[1]; [6],29%
same,Daytime wakefulness,[2],significantly improve daytime wakefulness
same,Effect on nighttime sleep,[2],without affecting nighttime sleep
same,Fatigue and confusion in sleep-deprived pilots,sleep-deprived pilots,reduce fatigue and confusion
